The test system of one assay is A549. Briefly: Cytotoxicity against human A549 cells incubated for 48 hrs by MTT assay. It counts as functional, cell-based. The settings on record: A549, 48 h.
For assay [1], the system named is Tobacco mosaic virus. In words: Antiviral activity against TMV U1 infected on Nicotiana glutinosa leaves smeared with virus before compound treatment assessed as virus infection curative effect by measuring local lesion numbers after 3 to 4 days post virus inoculation at 200 ug/ml by half-leaf method. It counts as functional. The conditions noted are these: U1, in Nicotiana glutinosa.

Assay [2] has as its system Tobacco mosaic virus. Briefly: Antiviral activity against TMV U1 infected on compound smeared Nicotiana glutinosa leaves assessed as virus infection protective effect by measuring local lesion numbers after 3 to 4 days post virus inoculation at 200 ug/ml by half-leaf method. It is filed as functional. The conditions noted are these: U1, in Nicotiana glutinosa.
The test system of assay [3] is Tobacco mosaic virus. In words: Antiviral activity against 30 mins compound pre-treated TMV U1 infected on Nicotiana glutinosa leaves assessed as virus inactivation effect by measuring local lesion numbers after 3 to 4 days post virus inoculation at 50 ug/ml by half-leaf method. It counts as functional. The settings on record: U1, in Nicotiana glutinosa.
Another assay relates to SW480. In words: Cytotoxicity against human SW480 cells incubated for 48 hrs by MTT assay. It is filed as functional, cell-based. The conditions noted are these: SW480, 48 h.
Assay [4] concerns Tobacco mosaic virus. In words: Antiviral activity against TMV U1 infected on 20 mins compound treated fresh leaves from 5 to 6 growth stage Nicotiana glutinosa assessed as inhibition of virus growth at 50 ug/ml cultured at 25 degC for 72 hrs by half-leaf method. It is filed as functional. The conditions noted are these: U1, in Nicotiana glutinosa.
Another assay relates to MCF7. Briefly: Cytotoxicity against human MCF7 cells incubated for 48 hrs by MTT assay. It counts as functional, cell-based. The settings on record: MCF7, 48 h.
For another assay, the system named is SMMC-7721. In words: Cytotoxicity against human SMMC7721 cells incubated for 48 hrs by MTT assay. It is filed as functional, cell-based. The conditions noted are these: SMMC-7721, 48 h.
In a further assay the test system is HL-60. In words: Cytotoxicity against human HL60 cells incubated for 48 hrs by MTT assay. It is filed as functional, cell-based. The settings on record: HL-60, 48 h.
In assay [5] the test system is Tobacco mosaic virus. Briefly: Antiviral activity against 30 mins compound pre-treated TMV U1 infected on Nicotiana glutinosa leaves assessed as virus inactivation effect by measuring local lesion numbers after 3 to 4 days post virus inoculation at 10 ug/ml by half-leaf method relative to untreated control. The conditions noted are these: U1, in Nicotiana glutinosa. It counts as functional.

Assay [6] has as its system Tobacco mosaic virus. Briefly: Antiviral activity against 30 mins compound pre-treated TMV U1 infected on Nicotiana glutinosa leaves assessed as virus inactivation effect by measuring local lesion numbers after 3 to 4 days post virus inoculation at 40 ug/ml by half-leaf method relative to untreated control. It is filed as functional. The conditions noted are these: U1, in Nicotiana glutinosa.

Assay [7] deals with Tobacco mosaic virus. Briefly: Antiviral activity against 30 mins compound pre-treated TMV U1 infected on Nicotiana glutinosa leaves assessed as virus inactivation effect by measuring local lesion numbers after 3 to 4 days post virus inoculation at 20 ug/ml by half-leaf method relative to untreated control. It counts as functional. The conditions noted are these: U1, in Nicotiana glutinosa.

Assay [8] has as its system Tobacco mosaic virus. Briefly: Antiviral activity against 30 mins compound pre-treated TMV U1 infected on Nicotiana glutinosa leaves assessed as virus inactivation effect by measuring local lesion numbers after 3 to 4 days post virus inoculation at 50 ug/ml by half-leaf method relative to untreated control. It is filed as functional. The settings on record: U1, in Nicotiana glutinosa.

The test system of assay [9] is Tobacco mosaic virus. In words: Antiviral activity against 30 mins compound pre-treated TMV U1 infected on Nicotiana glutinosa leaves assessed as virus inactivation effect by measuring local lesion numbers after 3 to 4 days post virus inoculation by half-leaf method relative to untreated control. It is filed as functional, organism-based.
Assay [10] has as its system Tobacco mosaic virus. In words: Antiviral activity against 30 mins compound pre-treated TMV U1 infected on Nicotiana glutinosa leaves assessed as virus inactivation effect by measuring local lesion numbers after 3 to 4 days post virus inoculation at 30 ug/ml by half-leaf method relative to untreated control. It counts as functional. The settings on record: U1, in Nicotiana glutinosa.

This is an account of results in ChEMBL document CHEMBL3580639, “Bioactive Limonoid Constituents of Munronia henryi” (J Nat Prod, 2015).

≈ marks a conversion by molar mass, not a printed value. Where only a bound is given, the exact number is not on record here.

Consider `C=C1[C@@H]([C@@]2(C)C=CC(=O)OC(C)(C)[C@@H]2CC(=O)OC)[C@@H](OC(C)=O)[C@H](OC(C)=O)[C@@]2(C)[C@H](C(=O)O)C[C@H]3O[C@]132`, for which the IC50 in the assay with A549, with SW480, with MCF7, in the assay with SMMC-7721 and in the assay on HL-60 was above 10 µM in each case. Further, the inhibition at 200 µg/mL in the assay on Tobacco mosaic virus [1] was 27.3%; with Tobacco mosaic virus [2], 30.5%. The figures for the inhibition at 50 µg/mL in the assay with Tobacco mosaic virus [3] and with Tobacco mosaic virus [4] were 32.5% and 30.7%, respectively.

On to `CC(=O)O[C@H]1C[C@@H]2[C@@]3(C)[C@@H](OC(C)=O)CC(=O)OC(C)(C)[C@@H]3CC[C@@]2(C)C2=CC[C@@H](c3ccoc3)[C@@]21C`, for which the IC50 with A549 was above 10 µM; in the assay on SW480, above 10 µM; in the assay on MCF7, above 10 µM; in the assay with SMMC-7721 it was above 10 µM; in the assay with Tobacco mosaic virus [9] it was 27.7 µg/mL (≈ 54 µM); in the assay on HL-60, above 10 µM. Also, the inhibition at 200 µg/mL in the assay with Tobacco mosaic virus [1] was determined as 29.9%; in the assay with Tobacco mosaic virus [2], 36.4%. Further, in the assay with Tobacco mosaic virus [5], the inhibition at 10 µg/mL stood at 20.3%. Moreover, the inhibition at 40 µg/mL with Tobacco mosaic virus [6] worked out at 73.7%. The inhibition at 20 µg/mL in the assay with Tobacco mosaic virus [7] was found to be 38.1%. The inhibition at 50 µg/mL in the assay with Tobacco mosaic virus [3] was determined as 81.8%; in the assay with Tobacco mosaic virus [4], 89%; in the assay with Tobacco mosaic virus [8], 83.6%. In the assay on Tobacco mosaic virus [10], the inhibition at 30 µg/mL amounted to 63.4%.

Take `C/C=C(\C)C(=O)O[C@H]1C[C@@H](OC(C)=O)[C@@]2(C)CO[C@H]3[C@@H](O)[C@@]4(C)C5=C(C)[C@H](c6ccoc6)C[C@@H]5OC=C[C@@H]4[C@]1(C)[C@@H]32`: the IC50 with A549, in the assay on SW480, in the assay on MCF7, in the assay on SMMC-7721 and in the assay with HL-60 was above 10 µM each time. Further, the inhibition at 200 µg/mL in the assay with Tobacco mosaic virus [1] is 20.1%; with Tobacco mosaic virus [2], 24.7%. Also, the inhibition at 50 µg/mL in the assay with Tobacco mosaic virus [3] is 38.5%; with Tobacco mosaic virus [4], 49.3%.

For the molecule `CC(=O)O[C@H]1[C@@H](OC(C)=O)[C@@]2(C)C3=CC[C@@H](c4ccoc4)[C@]3(C)CC[C@@H]2[C@@]2(C)[C@@H](O)C[C@@H](OC(C)=O)C(C)(C)[C@H]12`, the IC50 in the assay on A549, with SW480, in the assay on MCF7, in the assay on SMMC-7721 and in the assay with HL-60 was above 10 µM in each case. Also, the results for the inhibition at 200 µg/mL in the assay with Tobacco mosaic virus [1] and in the assay with Tobacco mosaic virus [2] were 23.6% and 25.3%, respectively. Besides, the inhibition at 50 µg/mL came out at 30.2% with Tobacco mosaic virus [3] and 33.6% in the assay on Tobacco mosaic virus [4].

Take `C/C=C(\C)C(=O)O[C@H]1C[C@@H](OC(C)=O)[C@@]2(C)CO[C@H]3[C@@H](O)[C@]4(C)[C@H](CC(OC)O[C@H]5C[C@@H](c6ccoc6)C(C)[C@H]54)[C@]1(C)[C@@H]32` (stereo partly specified): the IC50 in the assay on A549, with SW480, in the assay with MCF7, in the assay on SMMC-7721 and with HL-60 was above 10 µM in each case. Also, the inhibition at 200 µg/mL in the assay with Tobacco mosaic virus [1] worked out at 53.6%; in the assay with Tobacco mosaic virus [2] it was 50%. For the same molecule, the inhibition at 50 µg/mL with Tobacco mosaic virus [3] came out at 31.5%; with Tobacco mosaic virus [4] it was 43.9%.

Regarding `CO[C@H]1C[C@H]2[C@](C)(C3=C(C)[C@H](c4ccoc4)C[C@@H]3O1)[C@H](O)[C@@H]1OC[C@]3(C)[C@H](OC(C)=O)C[C@H](OC(=O)c4ccccc4)[C@@]2(C)[C@@H]13`, the IC50 in the assay on A549, in the assay with SW480, in the assay with MCF7, in the assay on SMMC-7721 and with HL-60 was above 10 µM in each case. Moreover, the inhibition at 200 µg/mL in the assay with Tobacco mosaic virus [1] came to 19.3%; in the assay on Tobacco mosaic virus [2] it was 15%. Besides, the inhibition at 50 µg/mL in the assay on Tobacco mosaic virus [3] was 30.9%; with Tobacco mosaic virus [4], 41.5%.

Turning to `COC(=O)C[C@@H]1C(C)=C/C(=C\C2=C[C@@H](OC(C)=O)[C@H](OC(C)=O)[C@]3(C)C2=CC[C@H]3c2ccoc2)C(=O)OC1(C)C`, the IC50 with A549, with SW480, in the assay with MCF7, in the assay with SMMC-7721 and in the assay with HL-60 was above 10 µM throughout. Moreover, the inhibition at 200 µg/mL in the assay on Tobacco mosaic virus [1] was found to be 27.9%; with Tobacco mosaic virus [2], 28.3%. Besides, the inhibition at 50 µg/mL came out at 27.6% in the assay on Tobacco mosaic virus [3] and 30.1% in the assay on Tobacco mosaic virus [4].

`CC(=O)O[C@@H]1[C@H](O)[C@H]2C(C)(C)[C@H](OC(C)=O)C[C@H](OC(C)=O)[C@]2(C)[C@H]2CC[C@]3(C)C(=CC[C@H]3c3ccoc3)[C@]12C`: the IC50 in the assay on A549, with SW480, in the assay with MCF7, with SMMC-7721 and with HL-60 was above 10 µM each time. The inhibition at 200 µg/mL came out at 15.4% in the assay with Tobacco mosaic virus [1] and 19.4% in the assay on Tobacco mosaic virus [2]. Also, the inhibition at 50 µg/mL in the assay on Tobacco mosaic virus [3] is 21.2%; in the assay on Tobacco mosaic virus [4], 18.5%.

Regarding `C/C=C(\C)C(=O)O[C@@H]1[C@@H]2OC[C@]3(C)[C@H](OC(C)=O)C[C@H](O)[C@@](C)([C@@H]23)[C@H]2CCO[C@H]3C[C@@H](C4=CCOC4=O)C(C)=C3[C@]12C` [CHISONIMBOLININ F], the concentration for half-maximal inhibition (IC50) in the assay on A549, with SW480, with MCF7, with SMMC-7721 and in the assay on HL-60 was above 10 µM in each case. Also, the results for the inhibition at 200 µg/mL in the assay on Tobacco mosaic virus [1] and in the assay on Tobacco mosaic virus [2] were 20.5% and 17.3%, respectively. Besides, the inhibition at 50 µg/mL was 34.1% in the assay with Tobacco mosaic virus [3] and 44.5% with Tobacco mosaic virus [4].

For the molecule `C=C1[C@@H]([C@@]2(C)C=CC(=O)O[C@](C)(COC(C)=O)[C@@H]2CC(=O)OC)[C@@H](OC=O)[C@H](OC(=O)[C@H](O)[C@H](C)CC)[C@@]2(C)[C@@H](c3ccoc3)C[C@H]3O[C@]132` [MOMBASOL], the IC50 in the assay on A549, in the assay with SW480, in the assay with MCF7, with SMMC-7721 and in the assay with HL-60 was above 10 µM throughout. Also, the figures for the inhibition at 200 µg/mL with Tobacco mosaic virus [1] and in the assay with Tobacco mosaic virus [2] were 28.1% and 31.6%, respectively. Further, the inhibition at 50 µg/mL in the assay on Tobacco mosaic virus [3] was 38.9%; with Tobacco mosaic virus [4], 47.6%.

Turning to `CNCC(=O)N[C@@H](CO)C(=O)N[C@H]1[C@H](O)[C@@H](O)[C@H](n2ccc(N)nc2=O)O[C@@H]1C(N)=O` [NINGNANMYCIN], the results for the inhibition at 200 µg/mL with Tobacco mosaic virus [1] and in the assay with Tobacco mosaic virus [2] were 40.7% and 50.2%, respectively. Further, in the assay on Tobacco mosaic virus [5], the inhibition at 10 µg/mL came to 17.9%. Besides, the inhibition at 40 µg/mL with Tobacco mosaic virus [6] was found to be 38.6%. The inhibition at 20 µg/mL with Tobacco mosaic virus [7] amounted to 20.8%. Besides, the results for the inhibition at 50 µg/mL in the assay on Tobacco mosaic virus [3], in the assay with Tobacco mosaic virus [4] and in the assay with Tobacco mosaic virus [8] were 58.9%, 69.2% and 57.3%, respectively. In addition, the concentration for half-maximal inhibition (IC50) with Tobacco mosaic virus [9] was 44.6 µg/mL (≈ 101 µM). Moreover, the inhibition at 30 µg/mL in the assay on Tobacco mosaic virus [10] turned out to be 33.9%.

On to `CC(=O)O[C@H]1C(=O)[C@@]2(C)[C@H]([C@H](OC(=O)c3ccccc3)[C@]3(O)C[C@H](OC(=O)[C@H](O)[C@@H](NC(=O)c4ccccc4)c4ccccc4)C(C)=C1C3(C)C)[C@]1(OC(C)=O)CO[C@@H]1C[C@@H]2O` [PACLITAXEL], for which the IC50 in the assay with A549, in the assay on SW480, in the assay with MCF7, in the assay on SMMC-7721 and in the assay on HL-60 was below 0.008 µM throughout.
